In the test the test system is T1, voltage-gated Na+ (NaV) channels / INa in Neuro-2a cells (mainly NaV1.2, 1.3, 1.4 and 1.7).
T1 construct: gene Scn2a
In kind it is cell-based. The note with it: step -100 to -10 mV, 30 ms, Ca2+-free Tyrode with 10 mM TEA, 0.5 mM CdCl2, 20-25 °C.

Among the data in publication PMC9321339, “Characterization in Inhibitory Effectiveness of Carbamazepine in Voltage-Gated Na^+ and Erg-Mediated K^+ Currents in a Mouse Neural Crest-Derived (Neuro-2a) Cell Line” (International Journal of Molecular Sciences, 2022) are IC50 values, retold here.

Like-named read-outs stand apart in the source and are kept apart here.

For orientation: IC50 means the midpoint of a concentration-inhibition curve.

On to `NC(=O)N1c2ccccc2C=Cc2ccccc21` [Carbamazepine, 5H-dibenzo[b,f]azepine-5-carboxamide], for which the IC50 by setting is: (late (sustained) INa(L)) 18 µM; (peak (transient) INa(T)) 56 µM.
